{"source": "patent US8613927B2", "about": "“High affinity human antibodies to human nerve growth factor” (Regeneron Pharmaceuticals, Inc., priority 2007, dated 2013)", "key": {"[1]": {"molecular_target": "T1, human NT-3 binding to human p75-hFc (Homo sapiens, UniProt P20783)", "T1 sequence (P20783 139-257)": "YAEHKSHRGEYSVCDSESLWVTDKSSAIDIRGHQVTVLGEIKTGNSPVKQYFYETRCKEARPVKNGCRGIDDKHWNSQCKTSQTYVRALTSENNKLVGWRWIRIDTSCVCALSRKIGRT", "test": "BIACORE, NT-3 binding to p75-hFc surface in presence of antibody", "details": "20 nM NT-3 + 500 nM sample; normalized to IgG1 control", "procedure": "(§1) Human TrkA-hFc (9300 RU), human TrkB-hFc (6000 RU), human TrkC-hFc (9100 RU) and human p75-hFc (7500 RU) were covalently coupled to BIACORE® CM5 chip surfaces by amine-coupling procedure. […] The binding mixture was first incubated at room temperature to reach equilibrium (about 1 hr) and then was injected over the above TrkA-hFc, TrkB-hFc, TrkC-hFc and p75-hFc surfaces. The level of human NT-3 binding in each sample was measured. The binding RU from each sample mixture was normalized according to the RU value from the negative control sample (i.e., 20 nM human NT-3 with 500 nM AVASTIN®) and presented as % binding to Trk surfaces (Table 9)."}, "[2]": {"molecular_target": "T2, human NT-3 binding to human TrkA-hFc (Homo sapiens, UniProt P20783)", "T2 sequence (P20783 139-257)": "T1 sequence (P20783 139-257)", "test": "BIACORE, NT-3 binding to TrkA-hFc surface in presence of antibody", "details": "20 nM NT-3 + 500 nM sample; normalized to IgG1 control", "procedure": "as §1"}, "[3]": {"molecular_target": "T3, human NT-3 binding to human TrkC-hFc (Homo sapiens, UniProt P20783)", "T3 sequence (P20783 139-257)": "T1 sequence (P20783 139-257)", "test": "BIACORE, NT-3 binding to TrkC-hFc surface in presence of antibody", "details": "20 nM NT-3 + 500 nM sample; normalized to IgG1 control", "procedure": "as §1"}, "[4]": {"molecular_target": "T4, human NT-3 binding to human TrkB-hFc (Homo sapiens, UniProt P20783)", "T4 sequence (P20783 139-257)": "T1 sequence (P20783 139-257)", "test": "BIACORE, NT-3 binding to TrkB-hFc surface in presence of antibody", "details": "20 nM NT-3 + 500 nM sample; normalized to IgG1 control", "procedure": "as §1"}, "C57BL/6 male mice": {"system": "C57BL/6 male mice", "test": "Seltzer model of neuropathic pain, Hargreaves' test", "format": "in vivo, mouse", "source_text": "Neuropathic pain. The mouse Seltzer model of neuropathic pain (Malmberg et al. (1998) Pain 76:215-222) was used with C57BL/6 male mice, in which a partial nerve injury was produced by tying a tight ligature with a 7-0 silk suture around approximately ⅓ to ½ the diameter of the sciatic nerve of one single thigh per mouse. Post-surgery, the mice were allowed to recover for at least two days and then they were studied for several weeks post-surgery for thermal hyperalgesia in the Hargreaves' test. Controls were sham-operated mice in which the sciatic nerve was exposed and elevated but not tied. Following surgery, the mice were tested at day […] and at day 7 post-surgery to confirm that the thermal hyperalgesia had developed.\nFollowing the Seltzer surgery, mice were tested at days 5 and 7 post-surgery to confirm that the thermal hyperalgesia had developed."}, "C57BL/6 mice [5]": {"system": "C57BL/6 mice", "test": "Post-operative incision pain model, mechanical allodynia in von Frey test", "format": "in vivo, mouse", "details": "Table 17", "procedure": "Thermal hyperalgesia was studied in the Hargreaves' test and mechanical allodynia was tested in the von Frey test. In this latter test, mice were tested after being acclimated for 2-3 hours for 4 days in an apparatus with a wire mesh floor. The test was performed by applying, in ascending order, a series of von Frey hairs through the wire mesh onto the plantar surface of the hind paw with the incision. A response was considered positive if the paw was raised from the platform in response to application of the filament. Starting from the thinnest hair, each von Frey filament was applied up to five times until a response was observed."}, "C57BL/6 mice [6]": {"system": "C57BL/6 mice", "test": "Post-operative incision pain model, weight bearing test", "format": "in vivo, mouse", "details": "for mean percent weight distribution on affected limb: Table 15", "procedure": "Post-operative incision pain model. A rodent model of post-operative pain in which a hind paw plantar incision causes increased sensitivity to touch, guarding behavior, and thermal hyperalgesia, was used to study the efficacy of anti-NGF antibody therapy. For the plantar incision surgery, C57BL/6 mice under isoflurane received an incision through skin, fascia and then isolating the underlying flexor muscle and bisecting vertically. After suture and recovery, the mice were tested for thermal hyperalgesia in the Hargreaves' test and for guarding behavior in the weight bearing test (model 600, IITC Life Science) for 5 days."}}, "data": [{"substance": "tanezumab [RN624]", "values": [{"measurement": "% binding to p75-hFc surface", "setting": "[1]", "result": 19, "unit": "%"}, {"measurement": "% binding to TrkA-hFc surface", "setting": "[2]", "result": 7, "unit": "%"}, {"measurement": "% binding to TrkC-hFc surface", "setting": "[3]", "result": 8, "unit": "%"}, {"measurement": "% binding to TrkB-hFc surface", "setting": "[4]", "result": 8, "unit": "%"}, {"measurement": "pain relief", "setting": "C57BL/6 male mice; 50 mg/kg s.c. or i.p. at day 7 post-surgery, p<0.001-0.05", "result": "Significant pain relief was observed"}, {"measurement": "mean percent change from Hargreaves baseline", "setting": "C57BL/6 male mice; Table 25, 50 mg/kg s.c. at day 7, day 5 after surgery", "result": "−53.5 ± 6.3", "unit": "%"}, {"measurement": "mean percent change from Hargreaves baseline", "setting": "C57BL/6 male mice; Table 25, 50 mg/kg s.c. at day 7, day 7", "result": "−48.4 ± 6.2", "unit": "%"}, {"measurement": "mean percent change from Hargreaves baseline", "setting": "C57BL/6 male mice; Table 25, 50 mg/kg s.c. at day 7, day 8", "result": "4.5 ± 9.0", "unit": "%"}, {"measurement": "mean percent change from Hargreaves baseline", "setting": "C57BL/6 male mice; Table 25, 50 mg/kg s.c. at day 7, day 9", "result": "−15.2 ± 8.5", "unit": "%"}, {"measurement": "mean percent change from Hargreaves baseline", "setting": "C57BL/6 male mice; Table 25, 50 mg/kg s.c. at day 7, day 12", "result": "−4.2 ± 12.0", "unit": "%"}, {"measurement": "mean percent change from Hargreaves baseline", "setting": "C57BL/6 male mice; Table 25, 50 mg/kg s.c. at day 7, day 15", "result": "2.1 ± 10.9", "unit": "%"}, {"measurement": "mean percent change from Hargreaves baseline", "setting": "C57BL/6 male mice; Table 25, 50 mg/kg s.c. at day 7, day 19", "result": "−11.5 ± 12.1", "unit": "%"}, {"measurement": "mean percent change from Hargreaves baseline", "setting": "C57BL/6 male mice; Table 25, 50 mg/kg s.c. at day 7, day 22", "result": "−5.7 ± 9.5", "unit": "%"}, {"measurement": "mean percent change from Hargreaves baseline", "setting": "C57BL/6 male mice; Table 25, 50 mg/kg s.c. at day 7 post-surgery, Baseline", "result": "0.0 ± 0.0", "unit": "%"}, {"measurement": "mean percent change from Hargreaves baseline", "setting": "C57BL/6 male mice; Table 26, 50 mg/kg i.p. at day 7, day 5 after surgery", "result": "−56.6 ± 2.3", "unit": "%"}, {"measurement": "mean percent change from Hargreaves baseline", "setting": "C57BL/6 male mice; Table 26, 50 mg/kg i.p. at day 7, day 7", "result": "−62.3 ± 3.4", "unit": "%"}, {"measurement": "mean percent change from Hargreaves baseline", "setting": "C57BL/6 male mice; Table 26, 50 mg/kg i.p. at day 7, day 8", "result": "−3.3 ± 16.0", "unit": "%"}, {"measurement": "mean percent change from Hargreaves baseline", "setting": "C57BL/6 male mice; Table 26, 50 mg/kg i.p. at day 7, day 9", "result": "−18.4 ± 12.9", "unit": "%"}, {"measurement": "mean percent change from Hargreaves baseline", "setting": "C57BL/6 male mice; Table 26, 50 mg/kg i.p. at day 7, day 12", "result": "−7.0 ± 11.8", "unit": "%"}, {"measurement": "mean percent change from Hargreaves baseline", "setting": "C57BL/6 male mice; Table 26, 50 mg/kg i.p. at day 7, day 15", "result": "−16.2 ± 14.8", "unit": "%"}, {"measurement": "mean percent change from Hargreaves baseline", "setting": "C57BL/6 male mice; Table 26, 50 mg/kg i.p. at day 7 post-surgery, Baseline", "result": "0.0 ± 0.0", "unit": "%"}, {"measurement": "Paw Withdrawal Threshold", "setting": "C57BL/6 mice [5]; 25 mg/kg i.p. on day 1 post-surgery, Baseline", "result": "1.314 ± 0.137", "unit": "g"}, {"measurement": "Paw Withdrawal Threshold", "setting": "C57BL/6 mice [5]; 25 mg/kg i.p., 5 hr after treatment", "result": "0.083 ± 0.053", "unit": "g"}, {"measurement": "Paw Withdrawal Threshold", "setting": "C57BL/6 mice [5]; 25 mg/kg i.p., 22 hr after treatment", "result": "0.610 ± 0.123", "unit": "g"}, {"measurement": "Paw Withdrawal Threshold", "setting": "C57BL/6 mice [5]; 25 mg/kg i.p., 45 hr after treatment", "result": "0.909 ± 0.216", "unit": "g"}, {"measurement": "Paw Withdrawal Threshold", "setting": "C57BL/6 mice [5]; 25 mg/kg i.p., 70 hr after treatment", "result": "1.143 ± 0.189", "unit": "g"}, {"measurement": "Paw Withdrawal Threshold", "setting": "C57BL/6 mice [5]; 25 mg/kg i.p., Day 1 (post-surgery, before injection)", "result": "0.010 ± 0.002", "unit": "g"}, {"measurement": "reduction of post-operative pain vs vehicle, weight bearing test", "setting": "C57BL/6 mice [6]; 10 mg/kg s.c. 1 hr prior to incision, p<0.001-0.05", "result": "significantly reduced the post-operative pain"}, {"measurement": "mean percent weight distribution on affected limb", "setting": "C57BL/6 mice [6]; 10 mg/kg s.c. pre-incision, Day 0, ±SEM", "result": "49.0 ± 0.5", "unit": "%"}, {"measurement": "mean percent weight distribution on affected limb", "setting": "C57BL/6 mice [6]; 10 mg/kg, Day 1 after surgery", "result": "44.8 ± 1.9", "unit": "%"}, {"measurement": "mean percent weight distribution on affected limb", "setting": "C57BL/6 mice [6]; 10 mg/kg, Day 2 after surgery", "result": "42.7 ± 1.8", "unit": "%"}, {"measurement": "mean percent weight distribution on affected limb", "setting": "C57BL/6 mice [6]; 10 mg/kg, Day 3 after surgery", "result": "48.7 ± 1.9", "unit": "%"}, {"measurement": "mean percent weight distribution on affected limb", "setting": "C57BL/6 mice [6]; 10 mg/kg, Day 4 after surgery", "result": "47.2 ± 1.2", "unit": "%"}, {"measurement": "mean percent weight distribution on affected limb", "setting": "C57BL/6 mice [6]; 10 mg/kg, Day 5 after surgery", "result": "49.7 ± 0.7", "unit": "%"}]}]}
